Reference: PubChem BioAssay AID977605 (Broad Institute, 2014)
Activity calls are given as the source filed them.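 The calls were made as follows: active = fitted curve reaches 40% activation below the top valid tested dose, in every test run; inconclusive = test runs disagree on the call; inactive = the rest, including effects opposite to the expected direction.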

assay: endothelial E-selectin upregulation by compounds – imaging, HUVEC, cherry-picked samples, dose response (AID 977605); conditions: HUVEC E-selectin immunostaining, at 16 µM (top of the series), percent of TNF-alpha response over vehicle;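 also: signal is the share of imaged cells scored positive for E-selectin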

| Structure (SMILES) | activation |
| --- | --- |
| C[C@H](CO)N1C[C@H](C)[C@@H](CN(C)S(=O)(=O)c2cn(C)cn2)Oc2ccc(NC(=O)CCCCCC(=O)Nc3ccccc3N)cc2C1=O | -0.01% (inactive) |

same assay, conditions: HUVEC E-selectin immunostaining, at 19.5 µM (top of the series), percent of TNF-alpha response over vehicle

| Structure (SMILES) | activation |
| --- | --- |
| CCCCNC(=O)N1c2ccccc2CC1C (stereo unspecified) | 0.083% (inactive) |
| CO[C@@H]1CN(C)C(=O)c2cc(NS(C)(=O)=O)ccc2OC[C@@H](C)N(C(=O)c2ccc3c(c2)OCO3)C[C@@H]1C | -0.203% (inactive) |
| COc1ccccc1CSc1nc2c(c(=O)n(C)c(=O)n2C)n1C | -0.003% (inactive) |
| COc1ccc(C(=O)N2CC(c3ccccc3)CC2=O)cc1 (stereo unspecified) | -0.124% (inactive) |
| c1ccc(Nc2nnc(-c3cccnc3)s2)cc1 | 0.863% (inactive) |
| COc1cccc(C(=O)Nc2cc(C)c3c(=O)oc4ccccc4c3n2)c1 | 2.1% (inactive) |
| COc1ccc(NC(=O)Nc2cccc3c2O[C@H](CN(C)Cc2ccc(C(=O)Nc4ccccc4N)cc2)[C@H](C)CN([C@H](C)CO)C3=O)cc1 | 1.32% (inactive) |
| COc1ccc(S(=O)(=O)Nc2ccc3c(c2)CC(=O)N([C@H](C)CO)C[C@@H](C)[C@@H](CN(C)C(=O)NC2CCCCC2)O3)cc1 | 0.114% (inactive) |
| C[C@@H]1CN([C@H](C)CO)C(=O)Cc2cc(NS(C)(=O)=O)ccc2O[C@@H]1CN(C)S(=O)(=O)c1cn(C)cn1 | 13.4% (inactive) |
| COc1ccc(NC(=O)NC2(C(=O)N3CCOCC3)CCCCC2)cc1 | 0.439% (inactive) |
| C[C@H]1CN([C@@H](C)CO)C(=O)c2cc(NC(=O)Cn3cnnn3)ccc2O[C@@H]1CN(C)Cc1ccc(Oc2ccccc2)cc1 | -0.201% (inactive) |
| COc1ccc2sc(-c3ccccc3OC)c(-c3ccc(O)cc3)c2c1 | -0.095% (inactive) |
| C[C@H](CO)N1C[C@H](C)[C@@H](CN(C)Cc2ccccc2)Oc2c(NC(=O)C3CC3)cccc2C1=O | -0.084% (inactive) |
| CCNC(=O)C[C@@H]1CC[C@H]2[C@@H](COc3ccc(NC(=O)Nc4ccc(F)cc4)cc3C(=O)N2C)O1 | -0.137% (inactive) |
| O=C(O)CC1C(=O)NCCN1Cc1cccs1 (stereo unspecified) | -0.112% (inactive) |
| C[C@H]1CN([C@@H](C)CO)C(=O)Cc2cc(NC(=O)C3CC3)ccc2O[C@@H]1CN(C)S(=O)(=O)c1cccs1 | -0.038% (inactive) |
| C[C@@H]1CN([C@H](C)CO)C(=O)c2cccc(NC(=O)Nc3ccc(F)cc3)c2O[C@@H]1CN(C)S(=O)(=O)c1cn(C)cn1 | -0.066% (inactive) |
| CC(C)NC(=O)N(C)C[C@@H]1Oc2ccc(NC(=O)CCCN(C)C)cc2C(=O)N([C@@H](C)CO)C[C@H]1C | -0.112% (inactive) |
| C[C@H](CO)N1C[C@H](C)[C@@H](CN(C)S(=O)(=O)c2cn(C)cn2)Oc2ccc(NS(=O)(=O)c3ccc(Cl)cc3)cc2C1=O | -0.286% (inactive) |
| C/C=C/c1ccc2c(c1)O[C@H](CN(C)C(=O)CC)[C@@H](C)CN([C@H](C)CO)S2(=O)=O | 25.5% (inactive) |
| Cn1c(CNS(=O)(=O)c2ccc(Cl)cc2)cc(=O)n(C)c1=O | -0.279% (inactive) |

| Structure (SMILES) | activation |
| --- | --- |
| C[C@@H]1CN([C@H](C)CO)C(=O)Cc2cc(NC(=O)Nc3ccccc3)ccc2O[C@@H]1CN(C)C | 4.89% (inactive) |
| C[C@@H]1CN([C@@H](C)CO)C(=O)c2cc(NS(=O)(=O)c3cccs3)ccc2O[C@H]1CN(C)C(=O)Nc1ccc2c(c1)OCO2 | -0.287% (inactive) |
| Cc1cccc(CC(=O)c2c[nH]c3ccccc23)c1 | -0.07% (inactive) |
| C[C@H](CO)N1C[C@H](C)[C@H](CN(C)C)Oc2ccc(NC(=O)Cc3cn(C)c4ccccc34)cc2C1=O | 8.16% (inactive) |
| COc1ccc(S(=O)(=O)Nc2ccc3c(c2)C(=O)N([C@H](C)CO)C[C@H](C)[C@@H](CN(C)C(=O)Nc2cccc4ccccc24)O3)cc1 | 0.023% (inactive) |
| C[C@@H]1CN([C@H](C)CO)S(=O)(=O)c2ccc(-c3ccccc3)cc2O[C@H]1CN(C)S(C)(=O)=O | -0.007% (inactive) |
| C[C@H](CO)N1C[C@H](C)[C@H](CN(C)Cc2ccc3c(c2)OCO3)Oc2ccc(NC(=O)Cn3cnnn3)cc2C1=O | 2.56% (inactive) |
| COc1ccc(-c2nc3cc(C)c(Br)c(C)n3c2CC(C)(C)C)cc1OC | 0.052% (inactive) |
| COc1ccc(OCCN2CCN(S(=O)(=O)c3ccccc3C(F)(F)F)CC2)cc1 | -0.023% (inactive) |
| COc1ccccc1-c1nnc(NC(=O)CSc2nncn2C)s1 | -0.056% (inactive) |
| CC(C)NC(=O)N(C)C[C@@H]1Oc2ccc(NC(=O)Cn3cnnn3)cc2CC(=O)N([C@@H](C)CO)C[C@H]1C | 0.965% (inactive) |
| Cc1ccc(OCc2nc(-c3cccnc3)no2)cc1C | -0.108% (inactive) |
| CC(C)NC(=O)Nc1ccc2c(c1)C(=O)N(C)[C@@H]1CC[C@@H](CC(=O)NCC(F)(F)F)O[C@@H]1CO2 | 0.147% (inactive) |
| Cc1cc(NC(=O)CCC(=O)N(c2ccccc2)C(C(=O)NC2CCCC2)c2ccc(F)cc2)no1 (stereo unspecified) | 0.168% (inactive) |
| C[C@@H]1CN([C@@H](C)CO)C(=O)Cc2cc(NS(C)(=O)=O)ccc2O[C@H]1CN(C)Cc1ccncc1 | -0.007% (inactive) |
| CC(C)C[C@@H]1COc2cc(N3CCC[C@H]3CO)ccc2S(=O)(=O)N1 | -0.153% (inactive) |
| C[C@H](CO)N1C[C@H](C)[C@H](CN(C)CC2CCCCC2)Oc2ccc(NC(=O)Nc3ccc4c(c3)OCO4)cc2C1=O | -0.185% (inactive) |
| C[C@@H]1CN([C@@H](C)CO)C(=O)Cc2cc(NC(=O)Nc3ccc4c(c3)OCO4)ccc2O[C@H]1CN(C)C | -0.168% (inactive) |
| Cc1noc(C)c1S(=O)(=O)Nc1ccc2c(c1)C(=O)N([C@@H](C)CO)C[C@H](C)[C@H](CN(C)Cc1ccc3c(c1)OCO3)O2 | -0.065% (inactive) |
| C[C@H](CO)N1C[C@H](C)[C@@H](CN(C)S(C)(=O)=O)Oc2ccc(NS(=O)(=O)c3cccs3)cc2C1=O | -0.072% (inactive) |
| Cc1ccc(S(=O)(=O)N2CCOCC2)cc1C(=O)NC1CCCC1 | -0.154% (inactive) |

| Structure (SMILES) | activation |
| --- | --- |
| C[C@H]1CN([C@@H](C)CO)C(=O)Cc2cc(NC(=O)c3ccncc3)ccc2O[C@H]1CN(C)C(=O)Nc1ccc(C(F)(F)F)cc1 | 0.212% (inactive) |
| CCOc1ccc(C(=O)N2CCN(S(=O)(=O)c3cccs3)CC2)c(OCC)c1 | -0.235% (inactive) |
| Cc1noc(C)c1NC(=O)Nc1cccc2c1O[C@@H](CN(C)Cc1ccc(C(F)(F)F)cc1)[C@H](C)CN([C@@H](C)CO)C2=O | 0.145% (inactive) |
| CC1=NC(C)(C)Cc2c(C)cccc21 | -0.148% (inactive) |
| C[C@@H]1CN([C@@H](C)CO)C(=O)c2cc(N(C)C)ccc2O[C@@H]1CN(C)C(=O)Nc1cccc2ccccc12 | -0.224% (inactive) |
| C[C@H]1CN([C@@H](C)CO)C(=O)c2cc(NC(=O)Cn3cnnn3)ccc2O[C@H]1CN(C)S(=O)(=O)c1ccccc1 | -0.003% (inactive) |
| COc1ccc(S(=O)(=O)N(C)C[C@@H]2Oc3ccc(NC(=O)c4ccncc4)cc3C(=O)N([C@H](C)CO)C[C@H]2C)cc1 | -0.082% (inactive) |
| C[C@H]1CN([C@@H](C)CO)C(=O)c2cccc(NC(=O)Nc3cccc4ccccc34)c2O[C@H]1CN(C)Cc1ccc(-c2ccccc2)cc1 | 0.067% (inactive) |
| C[C@H](CO)N1C[C@H](C)[C@H](CN(C)S(=O)(=O)c2ccccc2)Oc2c(NC(=O)Nc3ccccc3)cccc2C1=O | -0.014% (inactive) |
| Cc1noc(C)c1S(=O)(=O)Nc1ccc2c(c1)C(=O)N([C@H](C)CO)C[C@@H](C)[C@H](CN(C)Cc1ccc3c(c1)OCO3)O2 | -0.134% (inactive) |
| C[C@@H]1CN([C@@H](C)CO)C(=O)c2cc(NC(=O)Nc3ccccc3)ccc2O[C@@H]1CN(C)C(=O)Nc1ccc(C(F)(F)F)cc1 | 0.807% (inactive) |
| O=S(=O)(NCc1csc(-c2cccs2)n1)c1cccc(C(F)(F)F)c1 | -0.123% (inactive) |
| CN(C1CCCCC1)S(=O)(=O)c1cn(C)c(=O)n(C)c1=O | -0.175% (inactive) |
| C[C@H]1CN([C@@H](C)CO)C(=O)c2cc(NC(=O)CCN3CCOCC3)ccc2O[C@H]1CN(C)S(=O)(=O)c1ccc(Cl)cc1 | -0.234% (inactive) |
| CCOC(=O)N1CCN=C1SCc1ccc(Cl)c(Cl)c1 | 5.27% (inactive) |
| C[C@H](CO)N1C[C@H](C)[C@@H](CN(C)Cc2ccc(C(=O)O)cc2)Oc2ccc(NC(=O)Nc3ccc(F)cc3)cc2CC1=O | 0.279% (inactive) |
| Cc1ccsc1CN(C)Cc1nc(C2CC2)no1 | 1.75% (inactive) |
| C[C@@H]1CN([C@@H](C)CO)C(=O)c2cc(NC(=O)Cn3cnnn3)ccc2O[C@@H]1CN(C)Cc1ccc(Oc2ccccc2)cc1 | -0.116% (inactive) |
| COc1ccc(-c2nnc3n2CCCCC3)cc1 | 0.032% (inactive) |
| CCOC(=O)c1sc(NC(=O)CN2C(=O)C3CC=CCC3C2=O)nc1C (stereo unspecified) | 0.503% (inactive) |
| C[C@@H]1CN([C@H](C)CO)C(=O)c2cc(NC(=O)Nc3ccc4c(c3)OCO4)ccc2O[C@H]1CN(C)S(=O)(=O)c1ccc(F)cc1 | -0.11% (inactive) |

same assay, conditions: HUVEC E-selectin immunostaining, at 21 µM (top of the series), percent of TNF-alpha response over vehicle

| Structure (SMILES) | activation |
| --- | --- |
| C[C@@H]1CN([C@@H](C)CO)C(=O)c2cc(NC(=O)CCN3CCOCC3)ccc2O[C@H]1CN(C)Cc1ccncc1 | -0.05% (inactive) |
| C[C@@H]1CN([C@@H](C)CO)C(=O)c2cccc(NC(=O)c3ccncc3)c2O[C@H]1CN(C)C(=O)Nc1cccc2ccccc12 | 1.89% (inactive) |
| C[C@@H]1CN([C@H](C)CO)C(=O)c2cccc(NC(=O)C3CCOCC3)c2O[C@H]1CN(C)C(=O)Nc1ccccc1 | -0.271% (inactive) |
| C[C@H](CO)N1C[C@H](C)[C@@H](CN(C)S(C)(=O)=O)Oc2c(NC(=O)C3CCCCC3)cccc2C1=O | 0.25% (inactive) |
| C[C@@H]1CN([C@@H](C)CO)C(=O)Cc2cc(NC(=O)Cc3ccccc3)ccc2O[C@@H]1CN(C)Cc1ccncc1 | -0.043% (inactive) |
| C[C@H]1CN([C@@H](C)CO)C(=O)c2cccc(NS(=O)(=O)c3cn(C)cn3)c2O[C@@H]1CN(C)C(=O)Nc1ccc(F)cc1 | -0.136% (inactive) |
| C[C@H](CO)N1C[C@H](C)[C@H](CN(C)S(=O)(=O)c2ccc(Cl)cc2)Oc2ccc(NS(=O)(=O)c3ccc(F)cc3)cc2CC1=O | -0.115% (inactive) |
